# Test results reported in patent US9499553B2 (CHUGAI SEIYAKU KABUSHIKI KAISHA, priority 2013, dated 2016).
# How the values were obtained:
# [1] = tested on: chronic kidney disease model rat; test: Suppressive effect on calcium deposition in blood vessel of chronic kidney disease model rat; type: in vivo; details: thoracic aorta, dosage 0.3% in feed, 14 weeks
# Procedure: Test Example 9: Suppressive Effect on Calcium Deposition in Blood Vessel of Chronic Kidney Disease Model Rat
# From the same animal as that in Test Example 7, the thoracic aorta was collected 14 weeks after the start of administration of the test compound, and the dry weight was measured. The measured dry thoracic aorta was subjected to ashing and dissolved in a certain amount of hydrochloric acid, and then the calcium concentration in the solution was measured using OCPC method to determine the amount of calcium per gram of the thoracic aorta dry weight (Katsumata K, Kusano K, Hirata M, Tsunemi K, Nagano N, Burke S K, Fukushima N. Sevelamer hydrochloride prevents ectopic calcification and renal osteodystrophy in chronic renal failure rats. Kidney Int. 2003 August; 64(2): 441-450.) The rate of suppression of calcium deposition in blood vessel was determined according to the following expression: Rate (%) of suppression of calcium deposition in blood vessel=(1−[(Amount of calcium per gram of dried blood vessel of the test compound-treated pathological group)−(Amount of calcium per gram of dried blood vessel of the normal group)]/[(Amount of calcium per gram of dried blood vessel of the reference pathological group)−(Amount of calcium per gram of dried blood vessel of the normal group)])×100
# human PiT-2 = biological target: T1, human PiT-2 (Homo sapiens, UniProt Q08357); test: Inhibitory effect on 33PO4 uptake into human PiT-2-expressing CHO cells; type: cell-based; details: pH 6.5, read-out: IC50 against 33PO4 uptake into human PiT-2-expressing cells
# T1 construct: expressed in transfected cells; host or cells: CHO cells
# T1 sequence (Q08357 1-652): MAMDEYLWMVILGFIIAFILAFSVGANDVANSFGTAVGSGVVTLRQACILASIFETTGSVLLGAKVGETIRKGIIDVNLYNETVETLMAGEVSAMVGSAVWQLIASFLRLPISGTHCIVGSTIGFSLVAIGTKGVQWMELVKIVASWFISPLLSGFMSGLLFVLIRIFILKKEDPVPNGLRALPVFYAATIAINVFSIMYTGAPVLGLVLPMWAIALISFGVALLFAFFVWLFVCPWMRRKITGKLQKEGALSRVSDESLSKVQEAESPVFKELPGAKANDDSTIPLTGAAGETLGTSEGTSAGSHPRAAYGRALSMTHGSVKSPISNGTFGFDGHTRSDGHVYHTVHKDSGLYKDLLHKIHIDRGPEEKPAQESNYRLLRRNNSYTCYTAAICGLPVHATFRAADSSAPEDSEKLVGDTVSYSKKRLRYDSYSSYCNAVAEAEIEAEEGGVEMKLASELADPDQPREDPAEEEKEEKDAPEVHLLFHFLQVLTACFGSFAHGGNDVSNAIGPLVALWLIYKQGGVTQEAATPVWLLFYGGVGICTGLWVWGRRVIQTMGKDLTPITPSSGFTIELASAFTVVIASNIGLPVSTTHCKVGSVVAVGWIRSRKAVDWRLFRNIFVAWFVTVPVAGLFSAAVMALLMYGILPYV
# Outline: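 CHO cells transfected with human PiT-2 or empty vector, then exposed to ^33PO4 at room temperature after compound preincubation. Uptake counted by scintillation. Inhibition computed from PiT-2 minus vector-cell uptake, relative to the DMSO control.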
smiles,measurement,setting,value
"COCCN(C)CCOc1ccc(CN2C(=O)C(C(=O)Nc3ccc(C(F)(F)F)cc3-c3cc(C(F)(F)F)ncn3)=C(O)C3(CCCC3)N2C)c(F)c1F [Example 14, 7-[[2,3-Difluoro-4-[2-[2-methoxyethyl(methyl)amino]ethoxy]phenyl]methyl]-10-hydroxy-6-methyl-8-oxo-N-[4-(trifluoromethyl)-2-[6-(trifluoromethyl)pyrimidin-4-yl]phenyl]-6,7-diazaspiro[4.5]dec-9-ene-9-carboxamide]",Rate of inhibition (%) (suppression of calcium deposition in blood vessel),[1],100% 100%
same,IC50,human PiT-2,2.6 µM
